Molecular target: µ opioid receptor (Rattus norvegicus, UniProt P33535)
Assay: [35S]GTPγS functional assay, rat brain membranes, µ receptor
Assay type: biochemical, Sprague-Dawley rat
Set-up: from tissue; host or cells: Sprague-Dawley rat brain (without cerebella) membranes
Conditions: read-out: Emax (% of basal activity)
Method: Membrane fractions were prepared from Sprague-Dawley rat or guinea pig brains as described above. To determine binding of [^35S]GTPyS, rat or guinea pig brain membranes (10 µg of protein) were incubated for 60 min at 30 °C in Tris-EGTA buffer (50 mM Tris-HCl buffer, 3 mM MgCl2, 1 mM EGTA, […], pH 7.4) containing 30 µM GDP, 0.05 nM [^35S]GTPyS and appropriate concentrations of the respective compounds according to the present invention in a final volume of 1 ml. The reaction was terminated by vacuum filtration through Whatman GF/B glass fibre filters. Filters were washed three times with ice-cold 50 mM Tris-HCI buffer (pH 7.4) and the bound radioactivity was measured by liquid scintillation counting (Beckman Coulter™ LS6500). Basal activity was determined by subtracting the non-specific binding (measured in the presence of 100 µM unlabelled GTPyS) from the total binding (measured in the absence of the compound).
Stimulation produced by the compound is given as percentage of the basal activity (given as 100%). Functional data, EC50 (nM; half maximal effective concentration) and maximal stimulation Emax (% stimulation over basal level; maximal effective concentration), were calculated by using nonlinear regression analysis and sigmoidal curve fitting GraphPad Prism (San Diego, CA, USA) program. […]

Sequence of µ opioid receptor (P33535 whole entry): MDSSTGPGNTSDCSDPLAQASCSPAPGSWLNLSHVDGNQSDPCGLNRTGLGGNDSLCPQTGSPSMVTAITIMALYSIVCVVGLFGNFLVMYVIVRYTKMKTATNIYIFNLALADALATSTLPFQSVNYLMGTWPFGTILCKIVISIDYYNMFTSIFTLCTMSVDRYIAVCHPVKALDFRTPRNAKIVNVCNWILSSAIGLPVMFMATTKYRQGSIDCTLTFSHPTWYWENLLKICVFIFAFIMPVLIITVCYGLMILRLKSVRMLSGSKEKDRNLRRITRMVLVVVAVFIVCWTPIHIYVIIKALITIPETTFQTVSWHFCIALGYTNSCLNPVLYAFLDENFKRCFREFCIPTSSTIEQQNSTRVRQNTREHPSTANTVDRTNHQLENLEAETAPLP

Structure (SMILES): C[C@@H](NC(=O)[C@@H](N)Cc1ccc(O)cc1)C(=O)NCC(=O)N(C)[C@@H](Cc1ccccc1)C(=O)NCCO [DAMGO, [D-Ala^2, Me-Phe ^4, Gly-ol^5]enkephalin]
- Emax: 179 ± 5%

Reference: patent publication EP2340832A1, “Morphinan-6-one compounds for the treatment or prevention of neurodegenerative diseases” (Universität Innsbruck, priority 2009, dated 2011)
